Each structure is given as a SMILES string. Like-named read-outs stand apart in the source and are kept apart here.

The IC50 is the point on the concentration scale where inhibition reaches its midpoint.

Experiment [1] addresses CK2 (Homo sapiens, UniProt P68400). Nature of the experiment: CK2 inhibition, biochemical chemiluminescence holoenzyme assay (Kinase Glo, IC50 determination). Conditions: Table 1 activity class; symbol given only if active; read-out: CK2 IC50 (Activity C). The procedure, abridged:
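Holoenzyme CK2 assay; compounds pre-incubated with substrate and enzyme, then reacted 150 min at 24-27° C. Remaining ATP measured as luminescence with Kinase Glo, and IC50 derived from the signal.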
For orientation: Kinase-Glo reads ATP consumption through a luciferase reaction.

Experiment [2] concerns the target CDC7 (Homo sapiens, UniProt O00311). Nature of the experiment: CDC7 inhibition, biochemical chemiluminescence assay (Kinase Glo, IC50 determination). As for the experimental part:
Characterization of CDC7 Inhibition in a Biochemical Chemiluminesence Assay (IC50 Determination):
The IC50 evaluation of compounds against the CDC7 enzyme was performed in a Chemiluminesence assay utilizing a Greiner 384-well white binding plate format. […] Upon addition of 10 μL of CDC-7 (GB) to the designated well plates and subsequent incubation for ten minutes at ambient temperature, 10 μL of ATP mix in Tris Base was added. Following an incubation period of 90 minutes at ambient temperature (24-27° C.), 20 μL of Kinase Glo (Promega) was added to measure kinase activity by quantitating the amount of ATP remaining in solution. The luminescence was measured following a Luciferase Protocol on either EnVision or Victor plate readers.

In experiment [3] the target is PIM (PIM-1, PIM-2, and/or PIM-3). The experiment can be described thus: PIM-1, PIM-2 and PIM-3 inhibition, biochemical chemiluminescence assays (Kinase Glo, IC50 determination). Conditions: Table 1 activity class; PIM refers to PIM-1, PIM-2, and/or PIM-3; read-out: PIM IC50 (Activity B).
Setting [4] is: Table 1 activity class, symbol given only if active, read-out: CDC7 IC50 (Activity A).
[5] abbreviates: compounds in Table 1, read-out: CDC7 IC50 value.

Sequence of CDC7 (O00311 whole entry): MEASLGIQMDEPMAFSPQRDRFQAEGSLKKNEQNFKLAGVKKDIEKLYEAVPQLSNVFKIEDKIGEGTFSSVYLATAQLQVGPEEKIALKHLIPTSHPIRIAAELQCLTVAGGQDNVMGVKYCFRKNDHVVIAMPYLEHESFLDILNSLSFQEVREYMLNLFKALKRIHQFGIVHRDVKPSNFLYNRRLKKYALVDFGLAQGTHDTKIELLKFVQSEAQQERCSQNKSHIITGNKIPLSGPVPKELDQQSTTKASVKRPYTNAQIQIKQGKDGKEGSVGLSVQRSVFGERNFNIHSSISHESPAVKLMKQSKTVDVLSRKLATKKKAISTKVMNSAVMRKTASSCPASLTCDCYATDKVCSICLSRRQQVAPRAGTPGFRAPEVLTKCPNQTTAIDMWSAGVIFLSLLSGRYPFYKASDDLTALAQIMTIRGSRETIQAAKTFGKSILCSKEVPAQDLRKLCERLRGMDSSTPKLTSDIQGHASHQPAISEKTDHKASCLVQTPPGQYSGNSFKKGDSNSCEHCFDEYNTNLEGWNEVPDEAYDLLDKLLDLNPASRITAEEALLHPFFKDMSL
Sequence of CDC7 (Q9UBU7 whole entry partner): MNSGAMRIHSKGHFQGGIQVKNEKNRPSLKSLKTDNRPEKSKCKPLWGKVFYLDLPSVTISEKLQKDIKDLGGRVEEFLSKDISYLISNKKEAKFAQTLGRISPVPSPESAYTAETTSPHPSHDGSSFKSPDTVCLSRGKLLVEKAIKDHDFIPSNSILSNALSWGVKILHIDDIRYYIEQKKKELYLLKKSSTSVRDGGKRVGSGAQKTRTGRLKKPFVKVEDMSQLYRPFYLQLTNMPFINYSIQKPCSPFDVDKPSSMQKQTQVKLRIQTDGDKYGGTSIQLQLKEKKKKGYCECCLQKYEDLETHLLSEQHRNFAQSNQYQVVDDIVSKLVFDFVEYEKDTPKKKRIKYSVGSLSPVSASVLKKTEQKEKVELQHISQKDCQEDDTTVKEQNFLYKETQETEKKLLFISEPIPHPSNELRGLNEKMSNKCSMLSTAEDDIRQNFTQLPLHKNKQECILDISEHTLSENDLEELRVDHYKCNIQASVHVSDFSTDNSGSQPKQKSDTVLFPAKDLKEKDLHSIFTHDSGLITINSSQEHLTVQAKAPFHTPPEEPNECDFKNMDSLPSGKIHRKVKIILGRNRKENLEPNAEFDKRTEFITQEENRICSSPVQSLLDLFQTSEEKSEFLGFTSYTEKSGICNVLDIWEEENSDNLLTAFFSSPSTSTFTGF
Sequence of CK2 (P68400 whole entry): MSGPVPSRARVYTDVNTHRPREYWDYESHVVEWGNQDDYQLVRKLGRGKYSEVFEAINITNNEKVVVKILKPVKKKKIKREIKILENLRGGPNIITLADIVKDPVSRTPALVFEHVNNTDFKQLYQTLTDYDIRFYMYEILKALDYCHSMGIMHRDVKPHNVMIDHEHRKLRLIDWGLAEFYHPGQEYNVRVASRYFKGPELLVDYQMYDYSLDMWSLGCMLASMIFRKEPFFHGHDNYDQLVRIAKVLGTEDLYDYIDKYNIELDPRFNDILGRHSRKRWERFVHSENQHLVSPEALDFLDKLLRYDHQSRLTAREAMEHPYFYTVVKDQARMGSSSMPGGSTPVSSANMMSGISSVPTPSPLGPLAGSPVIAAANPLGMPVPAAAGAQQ
Sequence of CK2 (P67870 whole entry partner): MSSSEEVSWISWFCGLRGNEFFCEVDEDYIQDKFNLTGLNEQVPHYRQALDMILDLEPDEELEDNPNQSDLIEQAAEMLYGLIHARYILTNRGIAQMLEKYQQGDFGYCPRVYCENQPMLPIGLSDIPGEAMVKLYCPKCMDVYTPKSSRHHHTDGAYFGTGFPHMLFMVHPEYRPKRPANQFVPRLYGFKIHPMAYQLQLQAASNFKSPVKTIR

On to `O=c1[nH]c(CN2CC3CCC2C3O)nc2c1oc1ccc(Br)cc12` (racemic) [Compound 332, 8-bromo-2-((7-hydroxy-2-azabicyclo[2.2.1]heptan-2-yl)methyl)benzofuro[3,2-d]pyrimidin-4(3H)-one], for which the IC50 in experiment [1] is less than 10 µM; in experiment [2] (setting [4]), less than 10 µM; in experiment [2] (setting [5]) it was less than 0.1 µM; in experiment [3] it was less than 10 µM.
Consider `COc1ccc2oc3c(=O)[nH]c(C4CCCN4)nc3c2c1` (stereo in doubt) [Compound 494, 8-(methyloxy)-2-[(2S)-pyrrolidin-2-yl][1]benzofuro[3,2-d]pyrimidin-4(3H)-one], for which the IC50 in experiment [1], in experiment [2] (setting [4]) and in experiment [3] was less than 10 µM throughout.
With `COc1ccc2oc3c(=O)[nH]c(C4CCCN4)nc3c2c1` (stereo in doubt) [Compound 495, 8-(methyloxy)-2-[(2R)-pyrrolidin-2-yl][1]benzofuro[3,2-d]pyrimidin-4(3H)-one], the IC50 in experiment [1] is less than 10 µM; in experiment [2] (setting [4]), less than 10 µM; in experiment [2] (setting [5]), less than 0.1 µM; in experiment [3], less than 10 µM.
On to `NC(CCc1ccccc1)c1nc2c(oc3ccc(Br)cc32)c(=O)[nH]1` (stereo in doubt) [Compound 537, 2-[(1S)-1-amino-3-phenylpropyl]-8-bromo[1]benzofuro[3,2-d]pyrimidin-4(3H)-one], for which the IC50 in experiment [1], in experiment [2] (setting [4]) and in experiment [3] was less than 10 µM each time.
As to `O=c1[nH]c(CN2CCCC2)nc2c1oc1ccc(Cl)cc12` [Compound 5, 8-chloro-2-(pyrrolidin-1-ylmethyl)[1]benzofuro[3,2-d]pyrimidin-4(3H)-one], the IC50 in experiment [1] was less than 10 µM; in experiment [2] (setting [4]), less than 10 µM; in experiment [2] (setting [5]), less than 0.1 µM; in experiment [3] it was less than 10 µM.
Take `CN(C)CCCN1CCN(Cc2nc3c(oc4ccc(Br)cc43)c(=O)[nH]2)CC1` [Compound 9, 8-bromo-2-({4-[3-(dimethylamino)propyl]piperazin-1-yl}methyl)[1]benzofuro[3,2-d]pyrimidin-4(3H)-one]: the IC50 in experiment [2] (setting [4]) and in experiment [3] was less than 10 µM each time.
On to `O=C(NCc1ccccc1)C1CCN(Cc2nc3c(oc4ccc(Br)cc43)c(=O)[nH]2)C1` (stereo not drawn) [Compound 266, 1-[(8-bromo-4-oxo-3,4-dihydro[1]benzofuro[3,2-d]pyrimidin-2-yl)methyl]-N-(phenylmethyl)pyrrolidine-3-carboxamide], for which the IC50 in experiment [1] and in experiment [2] (setting [4]) was less than 10 µM in each case.
On to `O=c1[nH]c(C2CNCCO2)nc2c1oc1ccc(Br)cc12` (stereo not drawn) [Compound 298, 8-Bromo-2-morpholin-2-yl[1]benzofuro[3,2-d]pyrimidin-4(3H)-one], for which the IC50 in experiment [1] is less than 10 µM; in experiment [2] (setting [4]) it was less than 10 µM; in experiment [2] (setting [5]) it was less than 0.1 µM.
Regarding `CN1C[C@@H]2CC[C@H]1CN2Cc1nc2c(oc3ccc(Br)cc32)c(=O)[nH]1` [Compound 330, 8-bromo-2-{[(1S,4S)-5-methyl-2,5-diazabicyclo[2.2.2]oct-2-yl]methyl}[1]benzofuro[3,2-d]pyrimidin-4(3H)-one], in experiment [2] (setting [4]), the IC50 was less than 10 µM.
As to `O=C(NCCN1CCCCC1)c1ccc(-c2nc3c(oc4ccc(Br)cc43)c(=O)[nH]2)c(Cl)c1` [Compound 383, 4-(8-bromo-4-oxo-3,4-dihydro[1]benzofuro[3,2-d]pyrimidin-2-yl)-3-chloro-N-(2-piperidin-1-ylethyl)benzamide], the IC50 in experiment [2] (setting [4]) was less than 10 µM; in experiment [2] (setting [5]), less than 0.1 µM.
Take `O=c1[nH]c(-c2ccc(CNC3CCNCC3)cc2Cl)nc2c1oc1ccc(Br)cc12` [Compound 387, 8-bromo-2-{2-chloro-4-[(piperidin-4-ylamino)methyl]phenyl}[1]benzofuro[3,2-d]pyrimidin-4(3H)-one]: the IC50 in experiment [2] (setting [4]) was less than 10 µM.
In the case of `O=c1[nH]c(Cc2ccccc2Br)nc2c1oc1ccc(Br)cc12` [Compound 421, 8-bromo-2-[(2-bromophenyl)methyl][1]benzofuro[3,2-d]pyrimidin-4(3H)one], the IC50 in experiment [2] (setting [4]) was less than 10 µM; in experiment [2] (setting [5]) it was less than 0.1 µM; in experiment [3] it was less than 10 µM.
With `O=c1[nH]c(CNCCN2CCCCC2)nc2c1oc1ccc(Br)cc12` [Compound 431, 8-bromo-2-{[(2-piperidin-1-ylethyl)amino]methyl}[1]benzofuro[3,2-d]pyrimidin-4(3H)-one], the IC50 in experiment [2] (setting [4]) and in experiment [3] was less than 10 µM in each case.
On to `O=c1[nH]c([C@@H]2CC(F)(F)CN2)nc2c1oc1ccc(Cl)cc12` [Compound 524, 8-chloro-2-[(2S)-4,4-difluoropyrrolidin-2-yl][1]benzofuro[3,2-d]pyrimidin-4(3H)-one], for which the IC50 in experiment [2] (setting [4]) was less than 10 µM; in experiment [2] (setting [5]) it was less than 0.1 µM; in experiment [3], less than 10 µM.
In the case of `O=c1[nH]c([C@@H]2C[C@H](F)CN2)nc2c1oc1ccc(Cl)cc12` [Compound 525, 8-chloro-2-[(2S,4S)-4-fluoropyrrolidin-2-yl][1]benzofuro[3,2-d]pyrimidin-4(3H)-one], the IC50 in experiment [2] (setting [4]) is less than 10 µM; in experiment [2] (setting [5]), less than 0.1 µM; in experiment [3], less than 10 µM.
As for `COc1ccc2oc3c(=O)[nH]c([C@@H]4C[C@H](F)CN4)nc3c2c1` [Compound 530, 2-[(2S,4S)-4-fluoropyrrolidin-2-yl]-8-(methyloxy)[1]benzofuro[3,2-d]pyrimidin-4(3H)-one], the figures for the IC50 in experiment [2] (setting [4]), in experiment [2] (setting [5]) and in experiment [3] were less than 10 µM, less than 0.1 µM and less than 10 µM, respectively.
Consider `NC(Cc1ccccc1)c1nc2c(oc3ccc(Br)cc32)c(=O)[nH]1` (stereo not drawn) [Compound 535, 2-(1-amino-2-phenylethyl)-8-bromo[1]benzofuro[3,2-d]pyrimidin-4(3H)-one], for which the IC50 in experiment [2] (setting [4]) and in experiment [3] was less than 10 µM throughout.
`NC(Cc1ccc(OCc2ccccc2)cc1)c1nc2c(oc3ccc(Br)cc32)c(=O)[nH]1` (stereo not drawn) [Compound 536, 2-(1-amino-2-{4-[(phenylmethyl)oxy]phenyl}ethyl)-8-bromo[1]benzofuro[3,2-d]pyrimidin-4(3H)-one]: the IC50 in experiment [2] (setting [4]) and in experiment [3] was less than 10 µM each time.
For the compound `COc1ccc(CC(N)c2nc3c(oc4ccc(Br)cc43)c(=O)[nH]2)cc1` (stereo not drawn) [Compound 539, 2-{1-amino-2-[4-(methyloxy)phenyl]ethyl}-8-bromo[1]benzofuro[3,2-d]pyrimidin-4(3H)-one], the IC50 in experiment [2] (setting [4]) and in experiment [3] was less than 10 µM in each case.
On to `NC(c1nc2c(oc3ccc(Br)cc32)c(=O)[nH]1)C1CCCCC1` (stereo not drawn) [Compound 541, 2-[amino(cyclohexyl)methyl]-8-bromo[1]benzofuro[3,2-d]pyrimidin-4(3H)-one], for which the IC50 in experiment [2] (setting [4]) is less than 10 µM; in experiment [2] (setting [5]), less than 0.1 µM; in experiment [3] it was less than 10 µM.
In the case of `NC1(c2nc3c(oc4ccc(Br)cc43)c(=O)[nH]2)CCCCC1` [Compound 542, 2-(1-aminocyclohexyl)-8-bromo[1]benzofuro[3,2-d]pyrimidin-4(3H)-one], the half-inhibitory concentration (IC50) in experiment [1] is less than 10 µM; in experiment [2] (CDC7 IC50 (Activity A), Table 1 activity class, symbol given only if active), less than 10 µM; in experiment [2] (CDC7 IC50 value, compounds in Table 1), less than 0.1 µM.
Regarding `O=c1[nH]c(-c2ccc(NCC3CCCNC3)cc2Cl)nc2c1oc1ccc(Br)cc12` (stereo not drawn) [Cpd 159, 8-bromo-2-{2-chloro-4-[(piperidin-3-ylmethyl)amino]phenyl}[1]benzofuro[3,2-d]pyrimidin-4(3H)-one], the half-inhibitory concentration (IC50) in experiment [1] and in experiment [2] (setting [4]) was less than 10 µM throughout.
